Source: PubChem BioAssay AID2305 (GlaxoSmithKline (GSK), 2010)

tested on: P. falciparum 3D7 growth, pLDH absorbance; assay: P. falciparum 3D7 growth inhibition, dose response, strain 3D7 (AID 2305)

Q: `CCCCn1c(Sc2ccc(C#N)c([N+](=O)[O-])c2)nnc1-c1cc(OC)cc(OC)c1` was tested. Which IC50 did it give?
A: Its IC50 is 820 nM.

Q: Which IC50 does the source give for `O=C(NCCCCN1CCN(CC=Cc2ccccc2)CC1)c1ccc(NC(=O)c2cc(Cl)cc(Cl)c2)cc1` here?
A: The IC50 was 210 nM.

Q: With `Clc1ccc2nc(-c3cccnc3)[nH]c2c1` as the molecule, how does the IC50 read?
A: The IC50 was 40 nM.

Q: How did the IC50 turn out when `CC(C)n1c(CC2CCN(CC3CCN(C(=O)/C=C/c4ccc(Cl)c(Cl)c4)CC3)CC2)nc2ccccc21` was run?
A: The IC50 was 610 nM.

Q: For `Cc1c(Oc2ccc(-n3ccnc3)cc2)ncnc1N1CCC2(CC1)CNCc1ccccc12`, which IC50 is on record?
A: Its IC50 is 890 nM.

Q: `Cc1cc(NN=Cc2ccc(F)cc2)c2cccc(C)c2n1` was tested. Which IC50 did it give?
A: The IC50 was 780 nM.

Q: Which IC50 does the source give for `CN1CCC(C(=O)N(Cc2ccc(-c3ccc(CNCCc4ccccc4)cn3)cc2)C2Cc3ccccc3C2)CC1` here?
A: Its IC50 is 1060 nM.

Q: With `O=C(O)CCCN1CCCC(=C(c2ccccc2)c2ccccc2)C1` as the molecule, how does the IC50 read?
A: The IC50 was 1190 nM.

Q: How did the IC50 turn out when `Cc1ccc(O)c(C(=O)c2cc(C(=O)Nc3ccccc3C)c(=O)n(-c3ccccc3C)c2)c1` was run?
A: Its IC50 is 780 nM.

Q: `CCCCCCOc1ccccc1C(=O)NCCOc1ccc(Cl)cc1` was tested. Which IC50 did it give?
A: The IC50 was 1210 nM.

Q: Which IC50 does the source give for `Cc1cc(NC(=O)NCCN2CCC(NS(=O)(=O)c3cccc(Br)c3)C2)c2ccccc2n1` (stereo not given) here?
A: Its IC50 is 610 nM.

Q: `Cc1csc(-c2nc(NCCc3c(C)noc3C)ncc2-c2ccsc2)n1` was tested. Which IC50 did it give?
A: Its IC50 is 180 nM.

Q: How did the IC50 turn out when `O=C(CCCc1ccccc1)Nc1cccc(N2CCC(N3CCN(c4ccccc4O)CC3)CC2)c1` was run?
A: The IC50 was 790 nM.

Q: For `COc1ccccc1C1CCN(CCN2CCC(NC(=O)c3ccc(-c4ccc(C#N)cc4)cc3)CC2)CC1`, which IC50 is on record?
A: The IC50 was 790 nM.

Q: How did the IC50 turn out when `CN1CCC(NCc2ccc(-c3cccc(S(=O)(=O)NCc4ccccc4)c3)cc2)CC1` was run?
A: Its IC50 is 320 nM.

Q: How did the IC50 turn out when `Cc1cccc2[nH]c(-c3cccc(-c4ccc(NC(=O)CN5CCOCC5)cc4)c3)nc12` was run?
A: Its IC50 is 1050 nM.

Q: How did the IC50 turn out when `Cc1ccc2nc(C)cc(NN=Cc3ccc([N+](=O)[O-])o3)c2c1` was run?
A: The IC50 was 750 nM.

Q: For `C[C@H]1CN(Cc2cccc(-c3cc(CNC(=O)c4cccc(CN5CCN(CCOc6ccccc6)CC5)c4)ccc3F)c2)CCN1`, which IC50 is on record?
A: Its IC50 is 1110 nM.

Q: For `Cc1c[nH]c2ccc(/C=C/C(=O)NC3CCC(CCN4CCc5ccc(C#N)cc5CC4)CC3)cc12` (stereo not given), which IC50 is on record?
A: Its IC50 is 830 nM.

Q: How did the IC50 turn out when `CC(C)CC(NC(=O)c1cc2ccccc2s1)C(=O)N1CCCCCC1c1ccc(C(C)(C)C)cc1` (stereo not given) was run?
A: The IC50 was 860 nM.

Q: Which IC50 does the source give for `COc1cccc2c(NN=Cc3ccccc3[N+](=O)[O-])cc(C)nc12` here?
A: The IC50 was 420 nM.

Q: How did the IC50 turn out when `Cc1cccc2nc(C(=O)Nc3nc(CN4CCC(C)CC4)cs3)cn12` was run?
A: The IC50 was 760 nM.

Q: Which IC50 does the source give for `CCCCCCCN1CC[C@@H](CCCc2ccnc3ccc(OCCN4CCNCC4)cc23)[C@@H](CC)C1` here?
A: Its IC50 is 770 nM.

Q: Which IC50 does the source give for `CCCCOc1ccc(N2C(N)=NC(N)=NC2(C)C)cc1` here?
A: Its IC50 is 210 nM.

Q: For `CCNc1cc(C(=O)N[C@@H](Cc2ccccc2)[C@H](O)CNC2CCSCC2)cc(N2CCCC2=O)c1`, which IC50 is on record?
A: Its IC50 is 130 nM.

Q: With `O=C(CNc1ccc(Cl)c(S(=O)(=O)N2CCCC2)c1)Nc1ccc(Br)cc1F` as the molecule, how does the IC50 read?
A: Its IC50 is 320 nM.

Q: For `O=C(NC1CCN(CCCOc2ccnc3cc(Cl)ccc23)C1)c1ccc(Br)cc1` (stereo not given), which IC50 is on record?
A: The IC50 was 1020 nM.

Q: How did the IC50 turn out when `Cc1cc(NCCCCCCCCNc2cc(C)nc3ccccc23)c2ccccc2n1` was run?
A: The IC50 was 990 nM.

Q: Which IC50 does the source give for `CCCc1cc(NCc2ccncc2)nc(Nc2ccc(F)cc2)n1` here?
A: The IC50 was 1120 nM.

Q: Which IC50 does the source give for `O=C(CSc1n[nH]c(-c2ccccc2Br)n1)c1c[nH]c2ccccc12` here?
A: The IC50 was 980 nM.

Q: Which IC50 does the source give for `CN1CCC(C(=O)Nc2ccc(-c3ccc(-c4nc5ccc(C(F)(F)F)cc5[nH]4)s3)cc2)CC1` here?
A: Its IC50 is 990 nM.

Q: For `COc1ccc2nccc([C@@H](O)CN3CCC(NCc4[nH]c5ccccc5c4F)CC3)c2c1`, which IC50 is on record?
A: The IC50 was 250 nM.

Q: Which IC50 does the source give for `CCCc1cc(Cc2cnc(N)nc2N)ccc1OCCCCCC(=O)OCC` here?
A: Its IC50 is 500 nM.

Q: Which IC50 does the source give for `CCC(C)NC(=O)Nc1cccc(-c2cccc(-c3nc4c(C)cccc4[nH]3)c2)c1` (stereo not given) here?
A: The IC50 was 810 nM.

Q: For `Fc1ccccc1COc1ccc(Nc2ncnc3ccc(-c4nnc(C(F)(F)F)o4)cc23)cc1Cl`, which IC50 is on record?
A: Its IC50 is 730 nM.

Q: Which IC50 does the source give for `COc1ccc(Nc2cc(C)nc(Nc3ccc(NC(C)=O)cc3)n2)cc1` here?
A: Its IC50 is 860 nM.

Q: Which IC50 does the source give for `Cc1cccc2[nH]c(-c3ccc(-c4cccc(NC(=O)C(C)CN5CCN(C)CC5)c4)cc3)nc12` (stereo not given) here?
A: Its IC50 is 740 nM.

Q: `CCOc1ccc(C(C)NC(=O)c2ccc(OC)c(Br)c2)cc1OCC` (stereo not given) was tested. Which IC50 did it give?
A: Its IC50 is 710 nM.

Q: With `CCNCc1ccc(-c2cccc(-c3nc4ccccc4[nH]3)c2)cc1` as the molecule, how does the IC50 read?
A: The IC50 was 550 nM.

Q: `COc1ccc(N2CCN(CCCN3CCN(C(=O)c4ccc(/C=C/c5ccc(Cl)c(Cl)c5)cc4)CC3)CC2)c(OC)c1` was tested. Which IC50 did it give?
A: The IC50 was 910 nM.

Q: For `CN(Cc1cccc(O)c1)C1CCN(c2cc(NC(=O)c3ccc(F)cc3)ccn2)C1` (stereo not given), which IC50 is on record?
A: Its IC50 is 1150 nM.

Q: For `CS(=O)(=O)N(CC(O)Cn1c2ccc(Cl)cc2c2cc(Cl)ccc21)c1ccccc1` (stereo not given), which IC50 is on record?
A: Its IC50 is 900 nM.

Q: `O=C(NCCc1ccccc1)N(Cc1ccccc1-c1cccc(CNCc2ccc3c(c2)OCO3)c1)C1CCN(Cc2ccccc2)CC1` was tested. Which IC50 did it give?
A: The IC50 was 990 nM.

Q: With `NS(=O)(=O)NCCCN1CCN(c2ccccc2)CC1` as the molecule, how does the IC50 read?
A: The IC50 was 980 nM.

Q: With `Cn1cc(C2CCN(CCCCCNC(=O)/C=C/c3ccc(Cl)c(Cl)c3)CC2)c2cc(O)ccc21` as the molecule, how does the IC50 read?
A: Its IC50 is 940 nM.

Q: How did the IC50 turn out when `Cc1cc(N)nc2ccc(-c3ccc(CN)cc3)cc12` was run?
A: Its IC50 is 620 nM.

Q: Which IC50 does the source give for `Cn1c(/C=C/C(=O)NC2CCC(CCN3CCc4ccc(C#N)cc4CC3)CC2)cc2ccccc21` (stereo not given) here?
A: Its IC50 is 730 nM.

Q: With `CCOC(=O)c1ccc(NC(=O)N[C@@H](Cc2ccccc2)C(=O)NC2CCN(Cc3ccc(OCCCN(C)C)cc3)C2)cc1` (stereo not given in full) as the molecule, how does the IC50 read?
A: The IC50 was 700 nM.

Q: For `COc1ccc(-c2ccc(CNC(=O)c3ccc(Cl)cc3)c(F)c2)cc1CN1CCCN(C)CC1`, which IC50 is on record?
A: Its IC50 is 710 nM.

Q: `COc1ccc2nccc([C@@H](O)CN3CCC(NCc4ccc5sc(=O)[nH]c5c4)CC3)c2c1` was tested. Which IC50 did it give?
A: The IC50 was 290 nM.

Q: How did the IC50 turn out when `Nc1nc(N)c2c(Sc3ccc(F)cc3)cccc2n1` was run?
A: Its IC50 is 1070 nM.

Q: `Cc1cccc(Cl)c1Nc1nnc(-c2cccc(C(=O)NC[C@@H]3CC[C@H]4C[C@@H]3C4(C)C)c2)o1` was tested. Which IC50 did it give?
A: The IC50 was 270 nM.

Q: Which IC50 does the source give for `CC(C)NCc1cccc(-c2ccc(-c3nc4ccccc4[nH]3)cc2)c1` here?
A: The IC50 was 760 nM.

Q: For `Oc1ccc2[nH]c(-c3cccc(F)c3)nc2c1CN1CCCC1`, which IC50 is on record?
A: Its IC50 is 800 nM.

Q: For `COc1ccc2c(NN=Cc3cccc(Cl)c3)ccnc2c1`, which IC50 is on record?
A: Its IC50 is 720 nM.

Q: How did the IC50 turn out when `Cc1ccc(NC(=O)c2ccc(CN3CCCN(Cc4cccc(O)c4)CC3)cc2)cc1` was run?
A: The IC50 was 740 nM.

Q: With `O=C(NC1CCC(CN2CCC(c3c[nH]c4ccccc34)CC2)CC1)c1cc2cccc([N+](=O)[O-])c2[nH]1` (stereo not given) as the molecule, how does the IC50 read?
A: The IC50 was 340 nM.

Q: With `COc1ccc2nc(/N=C(/N)NC(=O)Nc3ccccc3)nc(C)c2c1` as the molecule, how does the IC50 read?
A: The IC50 was 1280 nM.

Q: With `Cc1cc(-c2nc3ccc(C(=O)NCc4ccccc4)cc3n2C2CCN(C(=O)c3ccc(-c4ccccc4)cc3)CC2)ccn1` as the molecule, how does the IC50 read?
A: Its IC50 is 900 nM.

Q: With `O=C(NC1CCC(N2CCC3(CC2)C(=O)NCN3c2ccccc2)CC1)c1cc2ccccc2[nH]1` (stereo not given) as the molecule, how does the IC50 read?
A: Its IC50 is 680 nM.

Q: `CN(Cc1ccccc1)C1CCCN(c2cc(NC(=O)c3ccc(F)cc3)ccn2)C1` (stereo not given) was tested. Which IC50 did it give?
A: Its IC50 is 990 nM.

Q: `C[C@H]1CN(Cc2cccc(-c3cc(CNC(=O)c4cccc(CC5CCN(C)CC5)c4)ccc3F)c2)CCN1C` was tested. Which IC50 did it give?
A: The IC50 was 1090 nM.

Q: Which IC50 does the source give for `O=C(Nc1ccsc1)Nc1cccc(-c2cccc(-c3nc4ccc(C(F)(F)F)cc4[nH]3)c2)c1` here?
A: Its IC50 is 150 nM.

Q: Which IC50 does the source give for `CC(C)Cc1nc2nc(N)nc(N)c2cc1C(C)C` here?
A: Its IC50 is 230 nM.

Q: Which IC50 does the source give for `Cc1ccc(C)c2sc(N3CCN(C(=O)c4ccc([N+](=O)[O-])o4)CC3)nc12` here?
A: The IC50 was 820 nM.

Q: `Cc1noc(C)c1-c1cccc(C(=O)NC2CCN(CCNC(=O)C(c3ccccc3)c3ccccc3)CC2)c1` was tested. Which IC50 did it give?
A: The IC50 was 1220 nM.

Q: How did the IC50 turn out when `Fc1ccc2nc(-c3ccc(-c4ccc(CN5CCC(CCN6CCCCC6)CC5)cc4)s3)[nH]c2c1` was run?
A: Its IC50 is 140 nM.

Q: How did the IC50 turn out when `O=C(Nc1cccc(-c2ccc(CN3CCCC3)cc2)c1)c1ccc(F)cc1` was run?
A: Its IC50 is 1080 nM.

Q: For `N=C(N)c1ccc(Nc2nc(Nc3ccc(-c4ccccc4)cc3)ncc2[N+](=O)[O-])cc1`, which IC50 is on record?
A: The IC50 was 800 nM.

Q: For `CN(C)CCc1c[nH]c2ccc(C(=O)Nc3ccc(-c4ccncc4)cc3)cc12`, which IC50 is on record?
A: Its IC50 is 570 nM.
